# Results: ChEMBL document CHEMBL1201862, “PubChem BioAssay data set” (2004)
#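 Grown in 96-well plates, cells were treated for 48 hours with each compound at five concentrations. Insufficient inhibition: endpoint recorded as highest concentration tested. At the GI50, growth is halved.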 Calls of active or inactive are those of the source. No stated cut-off is given here; in the data, active = GI50 up to about 1.1 µM and inactive = higher.
# How the values were obtained:
# Assay in all cases: NCI anticancer screen, dose series, 48 h
# M14 = system: M14
# SF-539 = system: SF-539
# HCT-15 = system: HCT-15
# UACC-257 = system: UACC-257
# RPMI-8226 = system: RPMI-8226
# Malme-3M = system: Malme-3M
# CCRF-CEM = system: CCRF-CEM
# SR = system: SR
# HL-60 = system: HL-60
# SK-MEL-5 = system: SK-MEL-5
# KM12 = system: KM12
# LOX IMVI = system: LOX IMVI
# A498 = system: A498
# OVCAR-8 = system: OVCAR-8
# K562 = system: K562
# RXF 393 = system: RXF 393
# OVCAR-5 = system: OVCAR-5
# SNB-75 = system: SNB-75
# A549 = system: A549
# SK-OV-3 = system: SK-OV-3
SMILES,GI50 (M14),GI50 (SF-539),GI50 (HCT-15) [µM],GI50 (UACC-257),GI50 (RPMI-8226),GI50 (Malme-3M),GI50 (CCRF-CEM),GI50 (SR),GI50 (HL-60),GI50 (SK-MEL-5),GI50 (KM12),GI50 (LOX IMVI),GI50 (A498),GI50 (OVCAR-8),GI50 (K562),GI50 (RXF 393),GI50 (OVCAR-5),GI50 (SNB-75),GI50 (A549),GI50 (SK-OV-3)
CN(C)CCCNC(=O)c1cn2c(ccc3sc4ccccc4c(=O)c32)n1,12.9 µM (inactive),16.7 µM (inactive),2.2,15.1 µM (inactive),1.73 µM (inactive),8.99 µM (inactive),2.05 µM (inactive),1.95 µM (inactive),3.6 µM (inactive),1.55 µM (inactive),12 µM (inactive),1.41 µM (inactive),14.6 µM (inactive),4.85 µM (inactive),1.79 µM (inactive),5.94 µM (inactive),10.6 µM (inactive),14.3 µM (inactive),9.14 µM (inactive),16.9 µM (inactive)
O=S(=O)(O)c1cc(/N=[N+](\[O-])c2cc(S(=O)(=O)O)c3ccccc3c2)cc2ccccc12,35.7 µM (inactive),16.8 µM (inactive),> 100,51.1 µM (inactive),28.1 µM (inactive),45.5 µM (inactive),29.7 µM (inactive),38.5 µM (inactive),30 µM (inactive),17.9 µM (inactive),> 100 µM (inactive),25.2 µM (inactive),> 100 µM (inactive),> 100 µM (inactive),30.7 µM (inactive),43.5 µM (inactive),32.5 µM (inactive),16.3 µM (inactive),> 100 µM (inactive),> 100 µM (inactive)
CCOC(=O)c1cc2c([nH]1)c(O)cc1c2ccn1Cc1ccccc1,23.6 µM (inactive),19.4 µM (inactive),15.1,19.7 µM (inactive),8.41 µM (inactive),18.5 µM (inactive),10.8 µM (inactive),1.03 µM (active),13 µM (inactive),12.1 µM (inactive),10.3 µM (inactive),14.4 µM (inactive),29.8 µM (inactive),17.2 µM (inactive),8.34 µM (inactive),7.8 µM (inactive),17.7 µM (inactive),22.2 µM (inactive),13.7 µM (inactive),20.7 µM (inactive)
CCNC(C)Cc1ccccc1 (stereo not given),> 100 µM (inactive),> 100 µM (inactive),> 100,> 100 µM (inactive),> 100 µM (inactive),> 100 µM (inactive),> 100 µM (inactive),> 100 µM (inactive),> 100 µM (inactive),> 100 µM (inactive),> 100 µM (inactive),> 100 µM (inactive),> 100 µM (inactive),> 100 µM (inactive),> 100 µM (inactive),> 100 µM (inactive),> 100 µM (inactive),6.71 µM (inactive),> 100 µM (inactive),> 100 µM (inactive)
COC(=O)CC1CN(C(=O)OCc2ccccc2)C(C)(C)O1 (stereo not given),> 100 µM (inactive),> 100 µM (inactive),> 100,> 100 µM (inactive),81.3 µM (inactive),45.3 µM (inactive),> 100 µM (inactive),> 100 µM (inactive),89.9 µM (inactive),44.6 µM (inactive),43.3 µM (inactive),> 100 µM (inactive),> 100 µM (inactive),> 100 µM (inactive),> 100 µM (inactive),> 100 µM (inactive),> 100 µM (inactive),3.3 µM (inactive),> 100 µM (inactive),> 100 µM (inactive)
CCC1(C(=O)OC(C)(C)C)OC12C(C)CCCC2C (stereo not given),41.2 µM (inactive),> 100 µM (inactive),36,31 µM (inactive),21.5 µM (inactive),56.2 µM (inactive),18.7 µM (inactive),18.5 µM (inactive),17.8 µM (inactive),33.3 µM (inactive),37.3 µM (inactive),32.1 µM (inactive),57.9 µM (inactive),78.7 µM (inactive),21.8 µM (inactive),19.8 µM (inactive),> 100 µM (inactive),32.9 µM (inactive),34.8 µM (inactive),73.6 µM (inactive)
CSC(=S)OC1CC(n2cnc3c(NC(=O)c4ccccc4)ncnc32)OC1CO[Si](C)(C)C(C)(C)C (stereo not given),13.9 µM (inactive),36.3 µM (inactive),13.2,14.7 µM (inactive),16.3 µM (inactive),21.1 µM (inactive),3.5 µM (inactive),11 µM (inactive),2.84 µM (inactive),5.45 µM (inactive),5.6 µM (inactive),8.55 µM (inactive),19.1 µM (inactive),13.3 µM (inactive),3.78 µM (inactive),4.35 µM (inactive),49.4 µM (inactive),34.1 µM (inactive),12.4 µM (inactive),36.6 µM (inactive)
